From patent US7495027B2, “3-aryl-4-hydroxyfuranone compounds and the human and animal health use thereof” (Wyeth, priority 2003, dated 2009) come the findings set out here.

As usually defined, the IC50 is the concentration at which inhibition is half-maximal. As usually defined, the melting point is the temperature, or range, at which the solid turns liquid.

Data set [1] addresses T1, S. aureus UDP-N-acetylglucosamine enolpyruvoyl transferase, MurA (Staphylococcus aureus, UniProt P84058).
T1 sequence (P84058 1-421): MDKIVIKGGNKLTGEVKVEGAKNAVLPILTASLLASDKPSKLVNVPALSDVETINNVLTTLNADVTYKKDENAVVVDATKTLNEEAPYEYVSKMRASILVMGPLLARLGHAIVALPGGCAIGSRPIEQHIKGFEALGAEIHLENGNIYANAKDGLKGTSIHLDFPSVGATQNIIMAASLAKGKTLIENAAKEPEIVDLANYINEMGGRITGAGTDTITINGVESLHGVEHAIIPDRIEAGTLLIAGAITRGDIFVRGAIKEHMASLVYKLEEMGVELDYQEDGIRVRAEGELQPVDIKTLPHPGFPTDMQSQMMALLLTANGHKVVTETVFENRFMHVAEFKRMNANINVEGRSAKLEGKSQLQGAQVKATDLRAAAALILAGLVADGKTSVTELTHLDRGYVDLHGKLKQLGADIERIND
In words: Inhibitory activity against MurA (S. aureus). The settings on record: (S) S. aureus enzyme. Type of data set: biochemical. As to the method: Evaluation of the Inhibitory Activity of Test Compounds Against Enzymes which Catalyze Bacterial Cell Wall Biosynthesis
S. aureus and E. coli UDP-N-acetylglucosamine enolpyruvoyl transferase, MurA
Preparation of Enzyme Solution:
The enzyme solution is prepared by admixing the following: 50 mM Tris/HCl pH 8.0, […] 1 M Tris, 5 mM DTT, […] 1 M DTT, 20% Glycerol 4 ml 50% Glycerol, add water to 10 ml.
Preparation of Stop Solution:
The stop solution is prepared by mixing the following: 4.2% ammonium molybdate in 4N HCl, 8.4 g/200 ml 4N HCl, 0.045% malachite green, 90 mg/200 ml water, then stir 1 part ammonium molybdate with 2 parts malachite green for 30 min.
A procedure similar to that described by C. T. Walsh in Biochemistry 33, 10646-10651, is used to evaluate the inhibitory activity of test compounds against MurA, the enzyme which catalyzes the first step of bacterial cell wall biosynthesis. Experiments are performed by adding a solution of test compound (in a mixture of dimethylsulfoxide and water) and an enzyme solution to a well. After a pre-incubation period of 10 mintues at 37° C., Tris/BME buffer and assay buffer are added. A start point optical density (OD0) reading is taken at 340 nm immediately following the addition of assay buffer. After incubation for 1 hr at 37° C., the stop solution is added and the color is allowed to develop for 30 minutes. An end point OD1 reading at […] is then taken. […]

As for `O=C1O/C(=C\c2cccc3ccccc23)C(O)=C1c1cc(Cl)cc(Cl)c1` [Example 70], the melting point was in the range of 244 to 245 °C. Moreover, half-maximal inhibition in data set [1] (IC50) was put at 39.1 µM.
In the same order, the values of `O=C1O/C(=C\c2cccc3ccccc23)C(O)=C1c1ccc(C(F)(F)F)cc1` [Example 71] are 245 to 247 °C and over 65.4 µM.
`COc1cccc(C2=C(O)/C(=C/c3cccc4ccccc34)OC2=O)c1` [Example 72] registered a melting point of 214 to 216 °C. In data set [1], this compound showed a half-maximal inhibitory concentration (IC50) of over 72.6 µM.
On to `COC(=O)c1ccc(C2=C(O)/C(=C/c3cccc4ccccc34)OC2=O)cc1` [Example 74], for which the melting point lay in the range of 242 to 244 °C. Moreover, the IC50 in data set [1] is over 67.1 µM.
In the same order, the values of `O=Cc1cccc(C2=C(O)/C(=C/c3cccc4ccccc34)OC2=O)c1` [Example 76] are 220 to 221 °C and 17.5 µM.
Turning to `O=C1O/C(=C\c2ccc(Cl)cc2)C(O)=C1c1ccc(-c2ccccc2)c(F)c1` [Example 138], the melting point lay in the range of 255 to 258 °C. The half-inhibitory concentration (IC50) in data set [1] was 17.8 µM.
On the same counts, the results for `O=C1O/C(=C\c2ccc(-c3ccccc3)cc2)C(O)=C1c1csc2ccccc12` [Example 143] are 270 °C and over 63.1 µM.
With `O=C1O/C(=C\c2ccc(-c3ccccc3)cc2)C(O)=C1c1cccs1` [Example 144], the melting point was 213 °C (dec.). This compound also gave a 50% inhibitory concentration (IC50) in data set [1] of over 72.2 µM.
